This is an account of results in EP0483631A1, “3-Oxy substituted isoxazolines, process for their preparation and their utilization against Endoparasites” (BAYER AG, priority 1990, dated 1992).

The test system of assay [1] is Trichostrongylus colubriformis. The assay is described as follows: In vivo nematode test, Trichostrongylus colubriformis / sheep (faecal egg count before and after treatment). As to conditions: experimentally infected sheep, treated after the prepatent period, pure active ingredient in gelatine capsules, oral, dose giving complete cessation of egg excretion, read-out: Dosis effectiva. Details: species or system Schaf. An excerpt:
Trichostrongylus colubriformis / Schaf
Experimentell mit Trichostrongylus colubriformis infizierte Schafe wurden nach Ablauf der Präpatenzzeit des Parasiten behandelt. Die Wirkstoffe wurden als reiner Wirkstoff in Gelatinekapseln oral appliziert.
Der Wirkungsgrad wird dadurch bestimmt, daß man die mit dem Kot ausgeschiedenen Wurmeier vor und nach der Behandlung quantitativ auszählt.
(§1) Ein völliges Sistieren der Eiausscheidung nach der Behandlung bedeutet, daß die Würmer abgetrieben wurden oder so geschädigt sind, daß sie keine Eier mehr produzieren (Dosis effectiva).
Geprüfte Wirkstoffe und wirksame Dosierungen (Dosis effectiva) sind aus der nachfolgenden Tabelle ersichtlich.

In assay [2] the test system is Haemonchus contortus. The assay is described as follows: In vivo nematode test, Haemonchus contortus / sheep (faecal count before and after treatment). Details: species or system Schaf. As to conditions: experimentally infected sheep, treated after the prepatent period, pure active ingredient in gelatine capsules, oral, dose giving complete cessation of egg excretion, read-out: Dosis effectiva.
Description: Haemonchus contortus / Schaf
Experimentell mit Haemonchus contortus infizierte Schafe wurden nach Ablauf der Präpatenzzeit des Parasiten behandelt. Die Wirkstoffe wurden als reiner Wirkstoff in Gelatinekapseln oral appliziert.
Der Wirkungsgrad wird dadurch bestimmt, daß man die mit dem Kot ausgeschiedenen […] vor und nach der Behandlung quantitativ auszählt.
as §1
Geprüfte Wirkstoffe und wirksame Dosierungen (Dosis effectiva) sind aus der nachfolgenden Tabelle ersichtlich: […]

Molecules are shown by their SMILES.

For `COC1=NOC[C@H]1NC(=O)c1ccccc1C(=O)O` [Beispiel 1, (R)-N-(4,5-Dihydro-3-methoxy-4-isoazolyl)-phthalamidsäure], the minimal effective dose in assay [1] came out at 25 mg/kg; in assay [2], 10 mg/kg.
The matching figures for `CC(C)OC1=NOCC1NC(=O)c1ccccc1C(=O)O` (stereo not drawn) [Beispiel 3]: 25 mg/kg and 10 mg/kg.
The matching figures for `O=C(O)c1ccccc1C(=O)N[C@@H]1CON=C1OCc1cccc(Cl)c1` [Beispiel 2, (R)-N-[4-5-Dihydro-3-(-3-chlorphenyl)-methoxy-4-isoxazolyl]-phthalamidsäure]: 25 mg/kg and 10 mg/kg.
